Here are results for 6 molecules from US20220010258A1, “DEVICE THAT CAN SERVE AS A HEMATO-ENCEPHALITIC BARRIER MODEL” (priority 2017, published 2022).

For series [1] the following is noted: known ability; cited from earlier work.
Another series concerns P-glycoprotein. Briefly: Functionality of the P-glycoprotein: passage of rhodamine 123 with or without Zosuquidar, primary murine devices. The series is classed as in vitro ADME, mouse. As to the method: This functionality test is carried out with rhodamine 123, because it is known that this molecule as a substrate for the P-glycoprotein is expelled by the P-glycoprotein into the luminal compartment, which thus limits its passage through the device. The culture media are replenished: 1 mL in the abluminal compartment and 250 μL in the luminal compartment either containing or not containing the Zosuquidar inhibitor of P-glycoprotein P at 5 μM (Dantzig et al. 1996). The devices are incubated for 2 hrs in the incubator. Then, 250 μL of medium containing 2 μM rhodamine 123 with or without 5 μM Zosuquidar are added into the luminal compartment and incubated for 1 hr in the incubator. […] The reading of the fluorescence intensity is done on the same apparatus as for the permeability test (described above). The λex of the rhodamine is 500 nm and the λem is 524 nm.
Indeed it is known that rhodamine 123 as a substrate for glycoprotein P is expelled by the glycoprotein P into the luminal compartment, which limits the passage thereof through the device. Zosuquidar is an inhibitor of P-glycoprotein, therefore its use should limit the efflux of rhodamine 123 into the luminal compartment.
As in Example 4, the passage of rhodamine 123 in the presence or absence of Zosuquidar was studied.

A further series concerns P-gp glycoprotein. Briefly: Functionality of P-glycoprotein in the commercially available device (Rhodamine 123 with or without Zosuquidar). The conditions noted are these: commercially available model. In kind it is in vitro ADME, rat. As to the method: Here again, the functionality of the commercially available model was evaluated by studying the passage of Rhodamine 123 in the presence or absence of the specific inhibitor of the P-gp glycoprotein, Zosuquidar.

In a further series the test system is P-gp efflux pump. As to the kind of experiment: Functionality of P-glycoprotein on murine devices with immortalised cell lines.

With `O=C1CN=C(c2ccccn2)c2cc(Br)ccc2N1` [BROMO, Bromazepam], the “Passage through the HEB” value in series [1] is reported as “+”.

`NCCc1ccc(O)c(O)c1` [DA, Dopamine]: the “Passage through the HEB” value in series [1] is recorded as “−”.

With `Clc1ccc(C(c2ccccc2Cl)C(Cl)Cl)cc1` (centres unmarked) [MITO, Mitotane], in series [1], the “Passage through the HEB” value was “−”.

`OC[C@H]1O[C@@](CO)(O[C@H]2O[C@H](CO)[C@@H](O)[C@H](O)[C@H]2O)[C@@H](O)[C@@H]1O` [SUC, Sucrose]: the “Passage through the HEB” value in series [1] was “+”.

Regarding `O[C@@H](COc1cccc2ncccc12)CN1CCN([C@@H]2c3ccccc3[C@@H]3[C@H](c4ccccc42)C3(F)F)CC1` [Zosuquidar], the “inhibition of the efflux (of rhodamine 123) by the specific P-glycoprotein inhibitor” value in the series on P-glycoprotein (5 μM Zosuquidar, device WT) came out at 57.3%. Further, the “effect on P-gp functionality” value in the series with P-glycoprotein (24- and 96-well format devices) is “inhibited”. Moreover, the “effect of Zosuquidar on Rhodamine 123 passage” value in the series on P-gp glycoprotein is reported as “no effect”. The “Passage through the HEB” value in series [1] was “−”. Moreover, in the series on P-gp efflux pump (all the formats), the “effect of the specific Glycoprotein P inhibitor” value is recorded as “does not show any effect”.

Turning to rhodamine 123, the “passage of Rhodamine123 to the luminal side after addition into the abluminal compartment” value in the series on P-glycoprotein (24- and 96-well format devices) is on record as “comparable to cell-free HEBs”. Besides, the “passage of Rhodamine123 to the abluminal side” value with P-glycoprotein (24- and 96-well format devices, added luminal) is listed as “passes very little on to the abluminal side”. Further, the “decrease of the passage of rhodamine 123 to the abluminal compartment as compared to the device without cells” value in the series on P-glycoprotein (device WT, 1 hr incubation) is reported as 72.6%. In the series on P-gp glycoprotein (regardless of the side where it is deposited), the “efflux of Rhodamine123” value is 97%. In addition, the “limitation of the passage of Rhodamine 123 on the abluminal side” value in the series on P-gp efflux pump (12-, 24-, and 96 well plate formats) is given as “more than 60%”.
